Laboratory results: patent US10251395B2, “Substituted furano-/thienocycloalkylamino-2-pyrimidine derivatives and use thereof for controlling undesired plant growth” (Bayer CropScience Aktiengesellschaft, priority 2015, dated 2019)

Tests used:
[1] = test system: Echinochloa crus-galli; experiment: Pre-emergence herbicidal effect; assay type: in vivo; conditions: scored visually after 3 weeks
In short: (§1)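 Pre-emergence soil-surface application of compound as WP or EC in water (600 to 800 L/ha, 0.2% wetting agent) to freshly sown, soil-covered seeds in sandy loam. After 3 weeks under greenhouse conditions, percent activity rated by eye versus untreated plants, from 0% (no effect) to 100% (death).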

[2] = test system: Setaria viridis; experiment: Pre-emergence herbicidal effect; assay type: in vivo; conditions: scored visually after 3 weeks
In short: as §1

[3] = test system: Amaranthus retroflexus; experiment: Pre-emergence herbicidal effect; assay type: in vivo; conditions: scored visually after 3 weeks
In short: as §1

[4] = test system: Stellaria media; experiment: Pre-emergence herbicidal effect; assay type: in vivo; conditions: scored visually after 3 weeks
In short: as §1

[5] = test system: Matricaria inodora; experiment: Pre-emergence herbicidal effect; assay type: in vivo; conditions: scored visually after 3 weeks
In short: as §1

[6] = test system: Viola tricolor; experiment: Pre-emergence herbicidal effect; assay type: in vivo; conditions: scored visually after 3 weeks
In short: as §1

[7] = test system: Ipomoea purpurea; experiment: Pre-emergence herbicidal effect; assay type: in vivo; conditions: scored visually after 3 weeks
In short: as §1

[8] = test system: Lolium multiflorum; experiment: Pre-emergence herbicidal effect; assay type: in vivo; conditions: scored visually after 3 weeks
In short: as §1

[9] = test system: Polygonum convolvulus; experiment: Pre-emergence herbicidal effect; assay type: in vivo; conditions: scored visually after 3 weeks
In short: as §1

[10] = test system: Veronica persica; experiment: Pre-emergence herbicidal effect; assay type: in vivo; conditions: scored visually after 3 weeks
In short: as §1

[11] = test system: Abutilon theophrasti; experiment: Pre-emergence herbicidal effect; assay type: in vivo; conditions: scored visually after 3 weeks
In short: as §1

[12] = test system: Cyperus esculentus; experiment: Pre-emergence herbicidal effect; assay type: in vivo; conditions: Dosage 320 g/ha, scored visually after 3 weeks
In short: as §1

[13] = test system: Avena fatua; experiment: Pre-emergence herbicidal effect; assay type: in vivo; conditions: Dosage 320 g/ha, scored visually after 3 weeks
In short: as §1

[14] = test system: Alopecurus myosuroides; experiment: Pre-emergence herbicidal effect; assay type: in vivo; conditions: scored visually after 3 weeks
In short: as §1

[15] = test system: Echinochloa crus-galli; experiment: Post-emergence herbicidal effect; assay type: in vivo; conditions: assessed visually after about 3 weeks vs untreated controls
In short: (§2)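 Herbicidal effect was rated visually roughly 3 weeks after foliar treatment, as % versus untreated plants, with 0% meaning the same as controls and 100% meaning dead. Plants were treated at the one-leaf stage in the greenhouse with aqueous WP or EC sprays at 600–800 L/ha containing 0.2% wetter.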

[16] = test system: Setaria viridis; experiment: Post-emergence herbicidal effect; assay type: in vivo; conditions: assessed visually after about 3 weeks vs untreated controls
In short: as §2

[17] = test system: Amaranthus retroflexus; experiment: Post-emergence herbicidal effect; assay type: in vivo; conditions: assessed visually after about 3 weeks vs untreated controls
In short: as §2

[18] = test system: Stellaria media; experiment: Post-emergence herbicidal effect; assay type: in vivo; conditions: assessed visually after about 3 weeks vs untreated controls
In short: as §2

[19] = test system: Matricaria inodora; experiment: Post-emergence herbicidal effect; assay type: in vivo; conditions: assessed visually after about 3 weeks vs untreated controls
In short: as §2

[20] = test system: Viola tricolor; experiment: Post-emergence herbicidal effect; assay type: in vivo; conditions: assessed visually after about 3 weeks vs untreated controls
In short: as §2

[21] = test system: Ipomoea purpurea; experiment: Post-emergence herbicidal effect; assay type: in vivo; conditions: assessed visually after about 3 weeks vs untreated controls
In short: as §2

[22] = test system: Lolium multiflorum; experiment: Post-emergence herbicidal effect; assay type: in vivo; conditions: 320 g/ha, assessed visually after about 3 weeks vs untreated controls
In short: as §2

[23] = test system: Polygonum convolvulus; experiment: Post-emergence herbicidal effect; assay type: in vivo; conditions: assessed visually after about 3 weeks vs untreated controls
In short: as §2

[24] = test system: Veronica persica; experiment: Post-emergence herbicidal effect; assay type: in vivo; conditions: assessed visually after about 3 weeks vs untreated controls
In short: as §2

[25] = test system: Abutilon theophrasti; experiment: Post-emergence herbicidal effect; assay type: in vivo; conditions: assessed visually after about 3 weeks vs untreated controls
In short: as §2

[26] = test system: Avena fatua; experiment: Post-emergence herbicidal effect; assay type: in vivo; conditions: assessed visually after about 3 weeks vs untreated controls
In short: as §2

[27] = test system: Alopecurus myosuroides; experiment: Post-emergence herbicidal effect; assay type: in vivo; conditions: 320 g/ha, assessed visually after about 3 weeks vs untreated controls
In short: as §2

[28] = logP (HCOOH); assay type: physicochemical; conditions: HCOOH (formic acid)
From the text: Table 2 (physicochemical characterization of selected synthesis examples)

Cc1cc2c(s1)CCC[C@H]2Nc1ncc(C(F)(F)F)c(N)n1 [compound 47, N2-[(4R)-2-Methyl-4,5,6,7-tetrahydrobenzothiophen-4-yl]-5-(trifluoromethyl)pyrimidine-2,4-diamine]
ECHCG pre-emergence efficacy (herbicidal activity) ([1]; Dosage 80 g/ha): 100%
ECHCG pre-emergence efficacy (herbicidal activity) ([1]; Dosage 320 g/ha): 100%
SETVI pre-emergence efficacy (herbicidal activity) ([2]; Dosage 80 g/ha): 100%
SETVI pre-emergence efficacy (herbicidal activity) ([2]; Dosage 320 g/ha): 100%
AMARE pre-emergence efficacy (herbicidal activity) ([3]; Dosage 80 g/ha): 100%
AMARE pre-emergence efficacy (herbicidal activity) ([3]; Dosage 320 g/ha): 100%
STEME pre-emergence efficacy (herbicidal activity) ([4]; Dosage 80 g/ha): 100%
STEME pre-emergence efficacy (herbicidal activity) ([4]; Dosage 320 g/ha): 100%
MATIN pre-emergence efficacy (herbicidal activity) ([5]; Dosage 80 g/ha): 100%
MATIN pre-emergence efficacy (herbicidal activity) ([5]; Dosage 320 g/ha): 100%
VIOTR pre-emergence efficacy (herbicidal activity) ([6]; Dosage 80 g/ha): 100%
VIOTR pre-emergence efficacy (herbicidal activity) ([6]; Dosage 320 g/ha): 100%
PHBPU pre-emergence efficacy (herbicidal activity) ([7]; Dosage 80 g/ha): 100%
PHBPU pre-emergence efficacy (herbicidal activity) ([7]; Dosage 320 g/ha): 100%
LOLMU pre-emergence efficacy (herbicidal activity) ([8]; Dosage 320 g/ha): 100%
POLCO pre-emergence efficacy (herbicidal activity) ([9]; Dosage 80 g/ha): 100%
POLCO pre-emergence efficacy (herbicidal activity) ([9]; Dosage 320 g/ha): 100%
VERPE pre-emergence efficacy (herbicidal activity) ([10]; Dosage 80 g/ha): 100%
VERPE pre-emergence efficacy (herbicidal activity) ([10]; Dosage 320 g/ha): 100%
ABUTH pre-emergence efficacy (herbicidal activity) ([11]; Dosage 80 g/ha): 80%
ABUTH pre-emergence efficacy (herbicidal activity) ([11]; Dosage 320 g/ha): 100%
CYPES pre-emergence efficacy (herbicidal activity) [12]: 80%
AVEFA pre-emergence efficacy (herbicidal activity) [13]: 100%
ALOMY pre-emergence efficacy (herbicidal activity) ([14]; Dosage 80 g/ha): 80%
ALOMY pre-emergence efficacy (herbicidal activity) ([14]; Dosage 320 g/ha): 100%
post-emergence efficacy ECHCG ([15]; 80 g/ha): 100%
post-emergence efficacy ECHCG ([15]; 320 g/ha): 100%
post-emergence efficacy SETVI ([16]; 80 g/ha): 90%
post-emergence efficacy SETVI ([16]; 320 g/ha): 90%
post-emergence efficacy AMARE ([17]; 320 g/ha): 90%
post-emergence efficacy STEME ([18]; 80 g/ha): 100%
post-emergence efficacy STEME ([18]; 320 g/ha): 100%
post-emergence efficacy MATIN ([19]; 80 g/ha): 90%
post-emergence efficacy MATIN ([19]; 320 g/ha): 100%
post-emergence efficacy VIOTR ([20]; 80 g/ha): 100%
post-emergence efficacy VIOTR ([20]; 320 g/ha): 100%
post-emergence efficacy PHBPU ([21]; 80 g/ha): 100%
post-emergence efficacy PHBPU ([21]; 320 g/ha): 100%
post-emergence efficacy LOLMU [22]: 80%
post-emergence efficacy POLCO ([23]; 80 g/ha): 80%
post-emergence efficacy POLCO ([23]; 320 g/ha): 80%
post-emergence efficacy VERPE ([24]; 80 g/ha): 100%
post-emergence efficacy ABUTH ([25]; 80 g/ha): 90%
post-emergence efficacy ABUTH ([25]; 320 g/ha): 90%
post-emergence efficacy AVEFA ([26]; 80 g/ha): 100%
post-emergence efficacy AVEFA ([26]; 320 g/ha): 90%
post-emergence efficacy ALOMY [27]: 100%
chromatographic logP [28]: 2.62

CC(=O)c1cnc(NC2CCCc3sc(C)cc32)nc1N (stereo not drawn) [compound 283]
ECHCG pre-emergence efficacy (herbicidal activity) ([1]; Dosage 80 g/ha): 100%
ECHCG pre-emergence efficacy (herbicidal activity) ([1]; Dosage 320 g/ha): 100%
SETVI pre-emergence efficacy (herbicidal activity) ([2]; Dosage 80 g/ha): 100%
SETVI pre-emergence efficacy (herbicidal activity) ([2]; Dosage 320 g/ha): 100%
AMARE pre-emergence efficacy (herbicidal activity) ([3]; Dosage 80 g/ha): 100%
AMARE pre-emergence efficacy (herbicidal activity) ([3]; Dosage 320 g/ha): 100%
STEME pre-emergence efficacy (herbicidal activity) ([4]; Dosage 80 g/ha): 100%
STEME pre-emergence efficacy (herbicidal activity) ([4]; Dosage 320 g/ha): 100%
MATIN pre-emergence efficacy (herbicidal activity) ([5]; Dosage 80 g/ha): 100%
MATIN pre-emergence efficacy (herbicidal activity) ([5]; Dosage 320 g/ha): 100%
VIOTR pre-emergence efficacy (herbicidal activity) ([6]; Dosage 80 g/ha): 100%
VIOTR pre-emergence efficacy (herbicidal activity) ([6]; Dosage 320 g/ha): 100%
PHBPU pre-emergence efficacy (herbicidal activity) ([7]; Dosage 80 g/ha): 60%
PHBPU pre-emergence efficacy (herbicidal activity) ([7]; Dosage 320 g/ha): 100%
LOLMU pre-emergence efficacy (herbicidal activity) ([8]; Dosage 80 g/ha): 100%
LOLMU pre-emergence efficacy (herbicidal activity) ([8]; Dosage 320 g/ha): 100%
POLCO pre-emergence efficacy (herbicidal activity) ([9]; Dosage 80 g/ha): 100%
POLCO pre-emergence efficacy (herbicidal activity) ([9]; Dosage 320 g/ha): 100%
VERPE pre-emergence efficacy (herbicidal activity) ([10]; Dosage 320 g/ha): 100%
ABUTH pre-emergence efficacy (herbicidal activity) ([11]; Dosage 80 g/ha): 90%
ABUTH pre-emergence efficacy (herbicidal activity) ([11]; Dosage 320 g/ha): 100%
AVEFA pre-emergence efficacy (herbicidal activity) [13]: 80%
ALOMY pre-emergence efficacy (herbicidal activity) ([14]; Dosage 80 g/ha): 80%
ALOMY pre-emergence efficacy (herbicidal activity) ([14]; Dosage 320 g/ha): 100%
post-emergence efficacy ECHCG ([15]; 80 g/ha): 80%
post-emergence efficacy ECHCG ([15]; 320 g/ha): 100%
post-emergence efficacy SETVI ([16]; 80 g/ha): 50%
post-emergence efficacy SETVI ([16]; 320 g/ha): 90%
post-emergence efficacy AMARE ([17]; 80 g/ha): 90%
post-emergence efficacy AMARE ([17]; 320 g/ha): 100%
post-emergence efficacy STEME ([18]; 80 g/ha): 100%
post-emergence efficacy STEME ([18]; 320 g/ha): 100%
post-emergence efficacy MATIN ([19]; 80 g/ha): 90%
post-emergence efficacy MATIN ([19]; 320 g/ha): 90%
post-emergence efficacy VIOTR ([20]; 80 g/ha): 90%
post-emergence efficacy VIOTR ([20]; 320 g/ha): 100%
post-emergence efficacy PHBPU ([21]; 80 g/ha): 80%
post-emergence efficacy PHBPU ([21]; 320 g/ha): 90%
post-emergence efficacy LOLMU [22]: 100%
post-emergence efficacy POLCO ([23]; 320 g/ha): 70%
post-emergence efficacy VERPE ([24]; 320 g/ha): 100%
post-emergence efficacy ABUTH ([25]; 80 g/ha): 90%
post-emergence efficacy ABUTH ([25]; 320 g/ha): 90%
post-emergence efficacy AVEFA ([26]; 320 g/ha): 80%
post-emergence efficacy ALOMY [27]: 90%
